Measured values reported in patent publication US12275745B2, “Therapeutic compounds and methods of use” (Genentech, Inc., priority 2021, dated 2025).

Columns and labels:
TEAD1 = TEAD1 (Homo sapiens, UniProt P28347); experiment: TR-FRET (Lipid HTRF) TEAD lipid pocket probe displacement assay, TEAD1; assay type: binding; conditions: His-tagged TEAD1, biotinylated lipid pocket probe, 4 hours
Description: (§1) His-tagged TEAD proteins are pre-incubated with TEAD project compounds for 30 minutes or 4 hours at room temperature. Biotinylated lipid pocket probes are then added to the TEAD/Compound mixture and incubated for 60 minutes at room temperature. The lipid pocket probe competes with the test compound for the TEAD lipid pocket until equilibrium is reached. After 60 minutes, Europium labelled anti-His (Perkin Elmer #AD0110) and XL665 labelled streptavidin (CIS Bio 610SAXAC) are added to the TEAD/test compound/lipid pocket mixture and incubated for 30 minutes or 4 hours. TR-FRET values are then measured using an EnVision multi-label plate reader (Perkin Elmer Cat #2104-001 0A.) If the lipid pocket probe binds to TEAD as expected, a TR-FRET signal results from the proximity of anti-His Eu and XL665. If a TEAD lipid pocket binder such as binds and displaces the lipid pocket probe, the disruption of the TEAD:probe interaction results in a decrease in TR-FRET signal. The potency of compounds as TEAD lipid pocket binders is determined by IC50 value generated using a non-linear 4 parameter curve fit.

TEAD3 = TEAD3 (Homo sapiens, UniProt Q99594); experiment: TR-FRET (Lipid HTRF) TEAD lipid pocket probe displacement assay, TEAD3; assay type: binding; conditions: His-tagged TEAD3, biotinylated lipid pocket probe, 4 hours
TEAD3, sequence (Q99594 whole entry, species assumed): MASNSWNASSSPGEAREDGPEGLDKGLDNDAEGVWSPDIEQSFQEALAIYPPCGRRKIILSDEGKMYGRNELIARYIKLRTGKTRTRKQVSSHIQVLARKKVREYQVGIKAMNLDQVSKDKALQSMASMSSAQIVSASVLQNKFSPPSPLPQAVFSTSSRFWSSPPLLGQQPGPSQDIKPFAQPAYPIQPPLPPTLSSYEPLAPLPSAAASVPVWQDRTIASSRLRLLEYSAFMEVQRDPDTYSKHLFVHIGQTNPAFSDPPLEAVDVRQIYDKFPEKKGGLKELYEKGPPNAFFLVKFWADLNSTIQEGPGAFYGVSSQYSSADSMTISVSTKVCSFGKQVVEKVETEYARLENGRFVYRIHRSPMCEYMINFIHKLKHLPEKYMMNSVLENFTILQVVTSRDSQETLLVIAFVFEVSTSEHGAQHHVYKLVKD
Description: as §1

TEAD4 = TEAD4 (Homo sapiens, UniProt Q15561); experiment: TR-FRET (Lipid HTRF) TEAD lipid pocket probe displacement assay, TEAD4; assay type: binding; conditions: His-tagged TEAD4, biotinylated lipid pocket probe, 4 hours
TEAD4, sequence (Q15561 whole entry, species assumed): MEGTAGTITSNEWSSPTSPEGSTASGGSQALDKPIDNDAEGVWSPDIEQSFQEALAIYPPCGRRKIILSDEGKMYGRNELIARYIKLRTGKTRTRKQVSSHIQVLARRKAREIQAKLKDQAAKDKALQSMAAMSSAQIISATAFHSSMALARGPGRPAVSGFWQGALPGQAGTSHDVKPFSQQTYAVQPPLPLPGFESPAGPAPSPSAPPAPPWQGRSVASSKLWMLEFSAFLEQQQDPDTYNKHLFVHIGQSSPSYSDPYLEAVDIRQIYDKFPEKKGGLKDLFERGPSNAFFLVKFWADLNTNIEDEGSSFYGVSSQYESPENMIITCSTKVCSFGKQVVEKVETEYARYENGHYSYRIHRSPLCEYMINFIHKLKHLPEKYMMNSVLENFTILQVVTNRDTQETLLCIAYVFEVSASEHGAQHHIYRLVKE

TEAD2 = TEAD2 (Homo sapiens, UniProt Q15562); experiment: biochemical;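 also: TR-FRET competition assay with His-tagged TEAD protein and a biotinylated lipid pocket probe, where probe displacement by compound lowers the signal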
TEAD2, sequence (Q15562 whole entry, species assumed): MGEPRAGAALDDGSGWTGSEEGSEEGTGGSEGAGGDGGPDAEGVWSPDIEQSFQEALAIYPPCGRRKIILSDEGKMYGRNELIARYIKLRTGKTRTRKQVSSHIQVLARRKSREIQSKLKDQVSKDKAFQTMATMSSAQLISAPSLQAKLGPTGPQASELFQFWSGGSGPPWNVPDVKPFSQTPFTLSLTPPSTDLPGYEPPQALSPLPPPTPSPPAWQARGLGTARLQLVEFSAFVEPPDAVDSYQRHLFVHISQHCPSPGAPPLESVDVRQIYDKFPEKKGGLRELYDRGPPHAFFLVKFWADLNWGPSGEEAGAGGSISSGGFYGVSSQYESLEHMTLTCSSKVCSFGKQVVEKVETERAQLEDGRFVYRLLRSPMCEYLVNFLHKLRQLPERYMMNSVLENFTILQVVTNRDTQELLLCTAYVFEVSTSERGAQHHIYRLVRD

TEAD1, sequence (P28347 whole entry, species assumed): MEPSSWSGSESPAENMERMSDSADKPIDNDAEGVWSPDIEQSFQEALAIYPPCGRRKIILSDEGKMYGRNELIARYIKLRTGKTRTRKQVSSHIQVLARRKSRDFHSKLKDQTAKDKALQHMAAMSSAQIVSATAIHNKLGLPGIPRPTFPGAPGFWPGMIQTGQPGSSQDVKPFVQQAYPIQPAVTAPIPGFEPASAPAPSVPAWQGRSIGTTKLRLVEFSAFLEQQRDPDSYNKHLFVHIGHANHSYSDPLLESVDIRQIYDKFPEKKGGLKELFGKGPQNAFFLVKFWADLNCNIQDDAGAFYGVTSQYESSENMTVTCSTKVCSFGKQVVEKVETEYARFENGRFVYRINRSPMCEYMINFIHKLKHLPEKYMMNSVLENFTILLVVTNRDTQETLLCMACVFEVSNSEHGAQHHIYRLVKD

For `C=CC(=O)NCc1cc(-c2ccc(OC(F)(F)F)nc2)c2ncoc2c1CO` [Compound 114, N-((7-(Hydroxymethyl)-4-(6-(trifluoromethoxy)pyridin-3-yl)benzo[d]oxazol-6-yl)methyl)acrylamide], the IC50 (TEAD1) was 480 nM, the IC50 (TEAD3) was 700 nM and the IC50 (TEAD4) was 740 nM. It also gave an IC50 (TEAD2) of 350 nM.
With `C=CC(=O)N(C)Cc1nc(-c2ccc(OC(F)(F)F)cc2)c2ncsc2n1` [Compound 11, N-methyl-N-[[7-[4-(trifluoromethoxy)phenyl]thiazolo[5,4-d]pyrimidin-5-yl]methyl]prop-2-enamide] the IC50 (TEAD1) was 78 nM, the IC50 (TEAD3) was 74 nM and the IC50 (TEAD4) was 8.1 nM. It also gave an IC50 (TEAD2) of 100 nM.
With `C=CC(=O)NCc1cc(-c2ccc(OC(F)(F)F)cc2)c2ncn(C)c2c1[C@@H](C)O` (single isomer, unassigned) [Compound 138] the IC50 (TEAD1) was 60 nM, the IC50 (TEAD3) was 3600 nM and the IC50 (TEAD4) was 92 nM. For the same molecule, the IC50 (TEAD2) was 10 nM.
In the case of `C=CC(=O)NC1CN(c2nc(-c3ccc(OC(F)(F)F)cc3)c3ncn(C)c3n2)C1` [Compound 127, N-(1-(9-Methyl-6-(4-(trifluoromethoxy)phenyl)-9H-purin-2-yl)azetidin-3-yl)acrylamide], the IC50 (TEAD1) is reported as 26 nM, the IC50 (TEAD3) is reported as 420 nM and the IC50 (TEAD4) is reported as 23 nM. For the same molecule, the IC50 (TEAD2) was 28 nM.
`C=CC(=O)NCc1cc(-c2ccc(OC(F)(F)F)cc2)c2ncn(C)c2c1C(F)F` [Compound 77, N-[[4-(difluoromethyl)-3-methyl-7-[4-(trifluoromethoxy)phenyl]benzimidazol-5-yl]methyl]prop-2-enamide] showed an IC50 (TEAD1) of 11 nM, an IC50 (TEAD3) of 110 nM and an IC50 (TEAD4) of 2.5 nM. It also gave an IC50 (TEAD2) of 4 nM.
In the case of `C=CC(=O)NCc1cc(-c2ccc(OC(F)(F)F)cc2)c2ncn(C(F)F)c2c1CO` [Compound 39, N-[[3-(difluoromethyl)-4-(hydroxymethyl)-7-[4-(trifluoromethoxy)phenyl]benzimidazol-5-yl]methyl]prop-2-enamide], the IC50 (TEAD1) is reported as 8 nM, the IC50 (TEAD3) is reported as 50.5 nM and the IC50 (TEAD4) is reported as 24.5 nM. The IC50 (TEAD2) was 9 nM.
In the case of `C=C(F)C(=O)NCc1cc(-c2ccc(OC(F)(F)F)cc2)c2ncn(C)c2c1CO` [Compound 63, 2-fluoro-N-[[4-(hydroxymethyl)-3-methyl-7-[4-(trifluoromethoxy)phenyl]benzimidazol-5-yl]methyl]prop-2-enamide], the IC50 (TEAD1) is reported as 110 nM, the IC50 (TEAD3) is reported as 310 nM and the IC50 (TEAD4) is reported as 80 nM. The IC50 (TEAD2) was 76 nM.
Work on `C=CC(=O)N(C)Cc1cc(-c2ccc(OC(F)(F)F)cc2)c2c(c1[C@@H](O)CO)CCO2` (single isomer, unassigned) [Compound 56] yielded an IC50 (TEAD1) of 48 nM, an IC50 (TEAD3) of 99 nM and an IC50 (TEAD4) of 13 nM. For the same molecule, the IC50 (TEAD2) was 35 nM.
In the case of `C=CC(=O)NCc1cc(-c2ccc(OC(F)(F)F)cc2)c2ncn(C)c2c1[C@H](C)O` (single isomer, unassigned) [Compound 139], the IC50 (TEAD1) is reported as 160 nM, the IC50 (TEAD3) is reported as 380 nM and the IC50 (TEAD4) is reported as 100 nM. For the same molecule, the IC50 (TEAD2) was 6.8 nM.
`C=CC(=O)N(CC)Cc1nc(-c2ccc(OC(F)(F)F)cc2)c2ncsc2n1` [Compound 98, N-Ethyl-N-((7-(4-(trifluoromethoxy)phenyl)thiazolo[5,4-d]pyrimidin-5-yl)methyl)acrylamide] showed an IC50 (TEAD1) of 710 nM, an IC50 (TEAD3) of 680 nM and an IC50 (TEAD4) of 48 nM. The IC50 (TEAD2) was 140 nM.
`C=CC(=O)NCc1cc(-c2ccc(OC(F)(F)F)cc2)c2c(c1[C@H](O)CC#N)CCO2` (single isomer, unassigned) [Compound 91] gave an IC50 (TEAD1) of 140 nM, an IC50 (TEAD3) of 11000 nM and an IC50 (TEAD4) of 63 nM. The IC50 (TEAD2) was 34 nM.
`C=CC(=O)NCc1cc(-c2ccc(OC(F)(F)F)cc2)c2ncn(C)c2c1NCCO` [Compound 140, N-((7-((2-Hydroxyethyl)amino)-1-methyl-4-(4-(trifluoromethoxy)phenyl)-1H-benzo[d]imidazol-6-yl)methyl)acrylamide] gave an IC50 (TEAD1) of 27 nM, an IC50 (TEAD3) of 3000 nM and an IC50 (TEAD4) of 43 nM. It also gave an IC50 (TEAD2) of 47 nM.
In the case of `Cn1cnc2c(-c3ccc(OC(F)(F)F)cc3)nc(C3(C#N)CN(C(=O)/C=C/CO)C3)nc21` [Compound 128, (E)-1-(4-Hydroxybut-2-enoyl)-3-(9-methyl-6-(4-(trifluoromethoxy)phenyl)-9H-purin-2-yl)azetidine-3-carbonitrile], the IC50 (TEAD1) is reported as 11 nM, the IC50 (TEAD3) is reported as 9.9 nM and the IC50 (TEAD4) is reported as 2.7 nM. The IC50 (TEAD2) was 21 nM.
For `C=C(NC(=O)c1cc(-c2ccc(OC(F)(F)F)cc2)c2ncn(C)c2c1)C(=O)OC` [Compound 141, Methyl 2-(1-methyl-4-(4-(trifluoromethoxy)phenyl)-1H-benzo[d]imidazole-6-carboxamido)acrylate], the IC50 (TEAD1) was 58 nM, the IC50 (TEAD3) was 1600 nM and the IC50 (TEAD4) was 15 nM. It also gave an IC50 (TEAD2) of 98 nM.
With `C=CC(=O)NCc1cc(-c2ccc(OC(F)(F)F)cc2F)c2ncn(C)c2c1C#N` [Compound 143, N-((7-Cyano-4-(2-fluoro-4-(trifluoromethoxy)phenyl)-1-methyl-1H-benzo[d]imidazol-6-yl)methyl)acrylamide] the IC50 (TEAD1) was 26 nM, the IC50 (TEAD3) was 69 nM and the IC50 (TEAD4) was 9.5 nM. It also gave an IC50 (TEAD2) of 22 nM.
Work on `C#Cc1ccc(-c2cc(CN(C)C(=O)C=C)c(CO)c3c2OCC3)cc1` [Compound 94, N-((7-(4-Ethynylphenyl)-4-(hydroxymethyl)-2,3-dihydrobenzofuran-5-yl)methyl)-N-methylacrylamide] yielded an IC50 (TEAD1) of 44 nM, an IC50 (TEAD3) of 56 nM and an IC50 (TEAD4) of 13 nM. For the same molecule, the IC50 (TEAD2) was 67 nM.
`O=C(C1=CCC1)N1CC(c2cc(-c3ccc(OC(F)(F)F)cc3)c3nccnc3c2[C@@H](O)CO)C1` [Compound 86, (R)-Cyclobut-1-en-1-yl(3-(5-(1,2-dihydroxyethyl)-8-(4-(trifluoromethoxy)phenyl)quinoxalin-6-yl)azetidin-1-yl)methanone] gave an IC50 (TEAD1) of 120 nM, an IC50 (TEAD3) of 230 nM and an IC50 (TEAD4) of 32 nM. For the same molecule, the IC50 (TEAD2) was 38 nM.
`C=CC(=O)NCc1cc(-c2ccc(OC(F)(F)F)cc2)c2ncn(C)c2c1[C@H](C)O` (single isomer, unassigned) [Compound 33] showed an IC50 (TEAD1) of 140 nM, an IC50 (TEAD3) of 260 nM and an IC50 (TEAD4) of 79 nM. The IC50 (TEAD2) was 7.8 nM.
With `C=CC(=O)NCc1nc(N2CCC(C(F)(F)F)CC2)c2ncn(C)c2n1` [Compound 130, N-((9-Methyl-6-(4-(trifluoromethyl)piperidin-1-yl)-9H-purin-2-yl)methyl)acrylamide] the IC50 (TEAD1) was 410 nM, the IC50 (TEAD3) was 440 nM and the IC50 (TEAD4) was 140 nM. For the same molecule, the IC50 (TEAD2) was 1000 nM.
Molecule `C=CC(=O)NCc1cc(-c2ccc(OC(F)(F)F)cc2)c2cccnc2c1CO` [Compound 44, N-[[8-(hydroxymethyl)-5-[4-(trifluoromethoxy)phenyl]-7-quinolyl]methyl]prop-2-enamide] has an IC50 (TEAD1) of 11 nM, an IC50 (TEAD3) of 18 nM and an IC50 (TEAD4) of 54 nM. It also gave an IC50 (TEAD2) of 16 nM.
For `C=CC(=O)NCc1cc(-c2ccc(OC(F)(F)F)cc2)c2ncn(C)c2c1Cc1cn[nH]c1` [Compound 34, N-[[3-methyl-4-(1H-pyrazol-4-ylmethyl)-7-[4-(trifluoromethoxy)phenyl]benzimidazol-5-yl]methyl]prop-2-enamide], the IC50 (TEAD1) was 190 nM, the IC50 (TEAD3) was 3600 nM and the IC50 (TEAD4) was 62 nM. For the same molecule, the IC50 (TEAD2) was 59 nM.
`C=CC(=O)N(C)Cc1cc(-c2ccc(OC(F)(F)F)cc2)c2nccn2c1` [Compound 38, N-methyl-N-[[8-[4-(trifluoromethoxy)phenyl]imidazo[1,2-a]pyridin-6-yl]methyl]prop-2-enamide] gave an IC50 (TEAD1) of 20 nM, an IC50 (TEAD3) of 26 nM and an IC50 (TEAD4) of 6.8 nM. For the same molecule, the IC50 (TEAD2) was 33 nM.
`C=CC(=O)NCc1cc(-c2ccc(OC(F)(F)F)cc2)c2nccnc2c1C#N` [Compound 85, N-((5-Cyano-8-(4-(trifluoromethoxy)phenyl)quinoxalin-6-yl)methyl)acrylamide] gave an IC50 (TEAD1) of 78 nM, an IC50 (TEAD3) of 127 nM and an IC50 (TEAD4) of 88.7 nM. The IC50 (TEAD2) was 121 nM.
`C=CC(=O)NCc1nc(-c2ccc(OC(F)(F)F)cc2)c2occc2n1` [Compound 10, N-[[4-[4-(trifluoromethoxy)phenyl]furo[3,2-d]pyrimidin-2-yl]methyl]prop-2-enamide] gave an IC50 (TEAD1) of 140 nM, an IC50 (TEAD3) of 410 nM and an IC50 (TEAD4) of 94 nM. It also gave an IC50 (TEAD2) of 1300 nM.
`C=CC(=O)NCc1cc(Oc2ccc(C(F)(F)F)cc2)c2ncccc2c1[C@@H](O)CO` (single isomer, unassigned) [Compound 148] gave an IC50 (TEAD1) of 36 nM, an IC50 (TEAD3) of 470 nM and an IC50 (TEAD4) of 540 nM. It also gave an IC50 (TEAD2) of 8.7 nM.
`C=CC(=O)NCc1cc(-c2ccc(OC(F)(F)F)cc2)c2nccnc2c1[C@H](C)O` (single isomer, unassigned) [Compound 83] was tested, and the IC50 (TEAD1) was 44 nM, the IC50 (TEAD3) was 190 nM and the IC50 (TEAD4) was 95 nM. It also gave an IC50 (TEAD2) of 6 nM.
`C=CC(=O)NCc1cc(-c2ccc(S(F)(F)(F)(F)F)cc2)c2c(c1CO)CCO2` [Compound 24, N-((4-(Hydroxymethyl)-7-(4-(pentafluoro-16-sulfaneyl)phenyl)-2,3-dihydrobenzofuran-5-yl)methyl)acrylamide] was tested, and the IC50 (TEAD1) was 32 nM, the IC50 (TEAD3) was 39 nM and the IC50 (TEAD4) was 27 nM. The IC50 (TEAD2) was 120 nM.
`O=C(NCc1cc(-c2ccc(OC(F)(F)F)cc2)c2nccnc2c1[C@@H](O)CO)C1=CCC1` [Compound 81, (R)-N-((5-(1,2-Dihydroxyethyl)-8-(4-(trifluoromethoxy)phenyl)quinoxalin-6-yl)methyl)cyclobut-1-ene-1-carboxamide] was tested, and the IC50 (TEAD1) was 31 nM, the IC50 (TEAD3) was 220 nM and the IC50 (TEAD4) was 13 nM. The IC50 (TEAD2) was 21 nM.
`O=C(C1=CCC1)N1CC(c2cc(-c3ccc(OC(F)(F)F)cc3)c3nccnc3c2[C@H](O)CO)C1` [Compound 87, (S)-Cyclobut-1-en-1-yl(3-(5-(1,2-dihydroxyethyl)-8-(4-(trifluoromethoxy)phenyl)quinoxalin-6-yl)azetidin-1-yl)methanone] gave an IC50 (TEAD1) of 50 nM, an IC50 (TEAD3) of 140 nM and an IC50 (TEAD4) of 11 nM. For the same molecule, the IC50 (TEAD2) was 16 nM.
`C=CC(=O)NCc1cc(-c2ccc(OC(F)(F)F)cc2)c2ncccc2c1C#N` [Compound 16, N-[[5-cyano-8-[4-(trifluoromethoxy)phenyl]-6-quinolyl]methyl]prop-2-enamide] was tested, and the IC50 (TEAD1) was 24 nM, the IC50 (TEAD3) was 37 nM and the IC50 (TEAD4) was 37 nM. It also gave an IC50 (TEAD2) of 51 nM.
